Results: patent US9504699B2, “Delayed-release glucocorticoid treatment of rheumatoid disease” (Horizon Pharma AG, priority 2006, dated 2016)

How the values were obtained:
Assay type in all cases: in vivo, human
adult RA patients [1] = assay: Phase III study, double-blind phase: adverse events
adult RA patients [2] = assay: 9-month open follow-up on Prednisone delayed-release: duration of morning stiffness; details: prednisone = all subjects
From the text: Although efficacy was not the main objective of this open follow-up study, the order of reporting was kept the same as in the previous study report on the double-blind phase. […] Mean Daily Duration of Morning Stiffness
The mean daily duration of morning stiffness at start of the double-blind period (Visit 2), at start of the open follow-up period (Visit 5) and at end of study (Visit 8) as well as the relative changes are presented in Table 10 and FIG. 2 for the study population.
Taking advantage of the higher number of available data, the interpretation of the results was carried out for the total numbers.

CRP = assay: 9-month open follow-up: CRP; details: after 12 weeks double-blind, by group; prednisone = Total
From the text: The median values of the inflammatory signs CRP and IL-6 during the open follow-up period (Visit 5 to Visit 8) and the respective absolute changes are presented in Table 12 and FIG. 3.

[3] = 12-week double-blind phase, prednisone = Total
[4] = after 12 weeks double-blind, by group
[5] = subjects of open follow-up, by double-blind group

Q: Which results are given for C[C@]12C=CC(=O)C=C1CC[C@@H]1[C@@H]2C(=O)C[C@@]2(C)[C@H]1CC[C@]2(O)C(=O)CO [prednisone]?
A: All AEs (at least one treatment-emergent AE) (adult RA patients [1]; 12-week double-blind phase, label prednisone = Total of both groups (N = 288)): 118 (41.0) No. (%) subjects; AE: Abdominal pain (Upper) (adult RA patients [1]; [3]): 13 (4.5) No. (%) subjects; AE: Flushing (adult RA patients [1]; [3]): 10 (3.5) No. (%) subjects; AE: Headache (adult RA patients [1]; [3]): 10 (3.5) No. (%) subjects; AE: Nasopharyngitis (values printed on the line headed 'Upper') (adult RA patients [1]; [3]): 12 (4.2) No. (%) subjects; AE: Nausea (adult RA patients [1]; [3]): 9 (3.1) No. (%) subjects; AE: Rheumatoid arthritis (adult RA patients [1]; [3]): 24 (8.3) No. (%) subjects; Drug-related AE: Abdominal pain (Upper) (adult RA patients [1]; [3]): 7 (2.4) No. (%) subjects; Drug-related AE: Headache (adult RA patients [1]; [3]): 6 (2.1) No. (%) subjects; Drug-related AE: Nausea (values printed on the line headed 'Upper') (adult RA patients [1]; [3]): 6 (2.1) No. (%) subjects; Drug-related AE: Rheumatoid arthritis (adult RA patients [1]; [3]): 5 (1.7) No. (%) subjects; SAEs (adult RA patients [1]; double-blind phase, both groups, 2.4%): Seven; AEs causing discontinuation of prednisone (adult RA patients [1]; double-blind phase, both groups, 7.6%): 22 subjects; SAE judged to be related to prednisone by the investigator (adult RA patients [1]; of the 7 subjects with SAEs): one; Duration of morning stiffness, Visit 5 (Start of Follow-up Period), mean (adult RA patients [2]; [4]): 125.56 min; Duration of morning stiffness, Visit 5 (Start of Follow-up Period), median (adult RA patients [2]; [4]): 83.93 min; Duration of morning stiffness, Visit 2 (Start of Double-blind Period), mean (adult RA patients [2]; [5]): 169.80 min; Duration of morning stiffness, Visit 2 (Start of Double-blind Period), median (adult RA patients [2]; [5]): 143.21 min; CRP (median), Visit 5 (Start of Follow-up) (CRP): 9.40 (n = 249) mg/L
